Experimental data taken from US12084472B2 (Ardelyx, Inc., priority 2015, dated 2024).

target: T1, human TGR5 (Homo sapiens, UniProt Q8TDU6); experiment: Cell-based TGR5 assay (cAMP generation, HTRF); conditions: HEK293 cells stably transfected with human TGR5; cAMP by HTRF; 30 minutes at 37° C.; read-out: pEC50 Human TGR5 (converted)
T1 construct: expressed in transfected cells; host or cells: HEK293
T1 sequence (Q8TDU6 1-330): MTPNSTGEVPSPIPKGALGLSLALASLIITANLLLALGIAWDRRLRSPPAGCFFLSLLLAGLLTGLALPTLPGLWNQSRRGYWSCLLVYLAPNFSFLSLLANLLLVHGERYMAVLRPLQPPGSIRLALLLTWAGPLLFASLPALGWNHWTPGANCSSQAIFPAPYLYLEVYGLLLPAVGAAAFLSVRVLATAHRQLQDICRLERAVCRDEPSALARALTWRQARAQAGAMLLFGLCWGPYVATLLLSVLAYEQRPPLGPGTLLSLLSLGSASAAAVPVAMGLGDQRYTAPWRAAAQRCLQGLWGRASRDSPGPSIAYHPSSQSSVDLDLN
In short: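 First, compounds in 3-fold serial dilution were placed in HBSS with 10 mM HEPES pH 7.4 and 0.5 mM IBMX. Next, human TGR5-expressing HEK293 cells were added and incubated 30 min at 37° C. Finally, cAMP was detected by HTRF and pEC50 derived by logistic fitting.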

**Q.** O=C1CCCN1CCCN(CCCSc1ccc(Cl)c(CNC2(c3cnccc3-c3ccccc3OC3CC3)CC2)c1)C(=O)[C@@H](O)[C@@H](O)[C@H](O)[C@@H](O)CO [Compound I-529, (2S,3S,4R,5S)-N-[3-({4-chloro-3-[({1-[4-(2-cyclopropoxyphenyl)pyridin-3-yl]cyclopropyl}amino)methyl]phenyl}sulfanyl)propyl]-2,3,4,5,6-pentahydroxy-N-[3-(2-oxopyrrolidin-1-yl)propyl]hexanamide] was tested. Which EC50 did it give?
**A.** 126 to 1000 nM

**Q.** CC(C)N(CCCCNC(=O)[C@@H](O)[C@@H](O)[C@H](O)[C@@H](O)CO)S(=O)(=O)c1cc(COC2(c3cnccc3-c3ccccc3OC3CC3)CC2)c(Cl)cc1F [Compound I-728, (2S,3S,4R,5S)-2,3,4,5,6-pentahydroxy-N-[4-[N-(propan-2-yl)[4-chloro-5-([1-[4-(2-cyclopropoxyphenyl)pyridin-3-yl]cyclopropoxy]methyl)-2-fluorobenzene]sulfonamido]butyl]hexanamide] was tested. Which EC50 did it give?
**A.** < 100 nM

**Q.** For CC(CCCCNC(=O)[C@@H](O)[C@@H](O)[C@H](O)[C@@H](O)CO)c1ccc(Cl)c(CNC2(c3cnccc3-c3ccccc3OC3CC3)CC2)c1 (stereo partly drawn) [Compound I-279, (2S,3S,4R,5S)-N-(5-{4-chloro-3-[({1-[4-(2-cyclopropoxyphenyl)pyridin-3-yl]cyclopropyl}amino)methyl]phenyl}hexyl)-2,3,4,5,6-pentahydroxyhexanamide], which EC50 is on record?
**A.** < 100 nM

**Q.** How did the EC50 turn out when CC(CCCC(=O)N(C[C@@H](O)[C@H](O)[C@@H](O)[C@@H](O)CO)CC(C)(C)CO)c1ccc(Cl)c(CNC2(c3cnccc3-c3ccccc3OC3CC3)CC2)c1 (stereo partly drawn) [Compound I-341, 5-{4-chloro-3-[({1-[4-(2-cyclopropoxyphenyl)pyridin-3-yl]cyclopropyl}amino)methyl]phenyl}-N-(3-hydroxy-2,2-dimethylpropyl)-N-[(2R,3S,4S,5S)-2,3,4,5,6-pentahydroxyhexyl]hexanamide] was run?
**A.** < 100 nM

**Q.** For Clc1ccc(CNC2(c3cnccc3-c3ccccc3OC3CC3)CC2)c(Cl)c1 [Compound I-28, 1-[4-(2-cyclopropoxyphenyl)pyridin-3-yl]-N-[(2,4-dichlorophenyl)methyl]cyclopropan-1-amine], which EC50 is on record?
**A.** 126 to 1000 nM

**Q.** Cc1ccc(C(C)CCCNC(=O)[C@@H](O)[C@@H](O)[C@H](O)[C@@H](O)CO)cc1CNC1(c2cnccc2-c2ccccc2OC2CC2)CC1 (stereo partly drawn) [Compound I-299, (2S,3S,4R,5S)-N-(4-{3-[({1-[4-(2-cyclopropoxyphenyl)pyridin-3-yl]cyclopropyl}amino)methyl]-4-methylphenyl}pentyl)-2,3,4,5,6-pentahydroxyhexanamide] was tested. Which EC50 did it give?
**A.** < 100 nM

**Q.** How did the EC50 turn out when Cc1ccc(SCCCCN(CCCS(C)(=O)=O)C(=O)[C@@H](O)[C@@H](O)[C@H](O)[C@@H](O)CO)cc1CNC1(c2cnccc2-c2ccccc2OC2CC2)CC1 [Compound I-548, (2S,3S,4R,5S)-N-[4-({3-[({1-[4-(2-cyclopropoxyphenyl)pyridin-3-yl]cyclopropyl}amino)methyl]-4-methylphenyl}sulfanyl)butyl]-2,3,4,5,6-pentahydroxy-N-(3-methanesulfonylpropyl) hexanamide] was run?
**A.** 126 to 1000 nM

**Q.** How did the EC50 turn out when CN(CCCCSc1ccc(Cl)c(CNC2(c3cnccc3-c3ccccc3OC3CC3)CC2)c1)C(=O)[C@@H](O)[C@@H](O)[C@H](O)[C@@H](O)CO [Compound I-506, (2S,3S,4R,5S)-N-[4-({4-chloro-3-[({1-[4-(2-cyclopropoxyphenyl)pyridin-3-yl]cyclopropyl}amino)methyl]phenyl}sulfanyl)butyl]-2,3,4,5,6-pentahydroxy-N-methylhexanamide] was run?
**A.** < 100 nM

**Q.** Which EC50 does the source give for CCc1ccc(C(C)CCCC(=O)NC[C@H](O)[C@@H](O)[C@H](O)[C@H](O)CO)cc1CNC1(c2cnccc2-c2ccccc2OC2CC2)CC1 (stereo partly drawn) [Compound I-349, 5-{3-[({1-[4-(2-cyclopropoxyphenyl)pyridin-3-yl]cyclopropyl}amino)methyl]-4-ethylphenyl}-N-[(2S,3R,4R,5R)-2,3,4,5,6-pentahydroxyhexyl]hexanamide] here?
**A.** < 100 nM

**Q.** For Cc1ccc(CCCCNC(=O)NC[C@H](O)[C@@H](O)[C@H](O)[C@H](O)CO)nc1CNC1(c2cnccc2-c2ccccc2OC2CC2)CC1 [Compound I-705], which EC50 is on record?
**A.** 126 to 1000 nM

**Q.** How did the EC50 turn out when O=C(O)CCN(C[C@H](O)[C@@H](O)[C@H](O)[C@H](O)CO)C(=O)CCCCc1cc(Cl)c(CNC2(c3cnccc3-c3ccccc3OC3CC3)CC2)cc1Cl [Compound I-178, 3-(5-{2,5-dichloro-4-[({1-[4-(2-cyclopropoxyphenyl)pyridin-3-yl]cyclopropyl}amino)methyl]phenyl}-N-[(2S,3R,4R,5R)-2,3,4,5,6-pentahydroxyhexyl]pentanamido)propanoic acid] was run?
**A.** 126 to 1000 nM

**Q.** With CC(CCCC(=O)N(C)C[C@H](O)[C@@H](O)[C@H](O)[C@H](O)CO)c1cc(Cl)c(COC2(c3cnccc3-c3ccccc3OC3CC3)CC2)cc1Cl (stereo partly drawn) [Compound I-162, 5-[2,5-dichloro-4-({1-[4-(2-cyclopropoxyphenyl)pyridin-3-yl]cyclopropoxy}methyl)phenyl]-N-methyl-N-[(2S,3R,4R,5R)-2,3,4,5,6-pentahydroxyhexyl]hexanamide] as the molecule, how does the EC50 read?
**A.** < 100 nM

**Q.** How did the EC50 turn out when O=C(CCCSc1ccc(Cl)c(COC2(c3cnccc3-c3ccccc3OC3CC3)CC2)c1)N(CCS(=O)(=O)N1CCOCC1)C[C@H](O)[C@@H](O)[C@H](O)[C@H](O)CO [Compound I-686, 4-{[4-chloro-3-({1-[4-(2-cyclopropoxyphenyl)pyridin-3-yl]cyclopropoxy}methyl)phenyl]sulfanyl}-N-[2-(morpholine-4-sulfonyl)ethyl]-N-[(2S,3R,4R,5R)-2,3,4,5,6-pentahydroxyhexyl]butanamide] was run?
**A.** 126 to 1000 nM

**Q.** COCCCN(C[C@H](O)[C@@H](O)[C@H](O)[C@H](O)CO)C(=O)CCCC(C)c1ccc(C)c(CNC2(c3cnccc3-c3ccccc3OC3CC3)CC2)c1 (stereo partly drawn) [Compound I-362, 5-{3-[({1-[4-(2-cyclopropoxyphenyl)pyridin-3-yl]cyclopropyl}amino)methyl]-4-methylphenyl}-N-(3-methoxypropyl)-N-[(2S,3R,4R,5R)-2,3,4,5,6-pentahydroxyhexyl]hexanamide] was tested. Which EC50 did it give?
**A.** < 100 nM

**Q.** With CN1C[C@@H]2C[C@H]1CN2S(=O)(=O)c1ccc(Cl)c(COC2(c3cnccc3-c3ccccc3OC3CC3)CC2)c1 [Compound I-777, (1S,4S)-2-((4-chloro-3-((1-(4-(2-cyclopropoxyphenyl)pyridin-3-yl)cyclopropoxy)methyl)phenyl)sulfonyl)-5-methyl-2,5-diazabicyclo[2.2.1]heptane] as the molecule, how does the EC50 read?
**A.** 126 to 1000 nM

**Q.** For CN(CCCCNC(=O)NC[C@H](O)[C@@H](O)[C@H](O)[C@H](O)CO)S(=O)(=O)c1ccc(C(F)(F)F)c(CNC2(c3cnccc3-c3ccccc3OC3CC3)CC2)c1 [Compound I-468, 1-(4-{N-methyl3-[({11-[4-(2-cyclopropoxyphenyl)pyridin-3-yl]cyclopropyl}amino)methyl]-4-(trifluoromethyl)benzenesulfonamido}butyl)-3-[(2S,3R,4R,5R)-2,3,4,5,6-pentahydroxyhexyl]urea], which EC50 is on record?
**A.** 126 to 1000 nM

**Q.** Which EC50 does the source give for CCN(C[C@H](O)[C@@H](O)[C@H](O)[C@H](O)CO)C(=O)NCCCCc1cc(Cl)c(COC2(c3cnccc3-c3ccccc3OC3CC3)CC2)cc1C [Compound I-94, 3-(4-(5-chloro-4-((1-(4-(2-cyclopropoxyphenyl)pyridin-3-yl)cyclopropoxy)methyl)-2-methylphenyl)butyl)-1-ethyl-1-((2S,3R,4R,5R)-2,3,4,5,6-pentahydroxyhexyl)urea] here?
**A.** < 100 nM

**Q.** For CC(CCCC(=O)N1CCN(C(=O)NC[C@H](O)[C@@H](O)[C@H](O)[C@H](O)CO)CC1)c1ccc(Cl)c(CNC2(c3cnccc3-c3ccccc3OC3CC3)CC2)c1 (stereo partly drawn) [Compound I-319, 4-(5-{4-chloro-3-[({1-[4-(2-cyclopropoxyphenyl)pyridin-3-yl]cyclopropyl}amino)methyl]phenyl}hexanoyl)-N-[(2S,3R,4R,5R)-2,3,4,5,6-pentahydroxyhexyl]piperazine-1-carboxamide], which EC50 is on record?
**A.** < 100 nM

**Q.** CN(CCCCNC(=O)N[C@H](CO)[C@@H](O)[C@H](O)[C@H](O)CO)S(=O)(=O)c1ccc(Cl)c(COC2(c3cnccc3-c3ccccc3OC3CC3)CC2)c1 [Compound I-778] was tested. Which EC50 did it give?
**A.** < 100 nM

**Q.** For CC(C)N(CCCCNC(=O)N[C@@H](CO)[C@@H](O)[C@H](O)[C@H](O)CO)S(=O)(=O)c1cc(COC2(c3cnccc3-c3ccccc3OC3CC3)CC2)c(Cl)cc1F [Compound I-763, 4-chloro-5-((1-(4-(2-cyclopropoxyphenyl)pyridin-3-yl)cyclopropoxy)methyl)-2-fluoro-N-isopropyl-N-(4-(3-((2S,3R,4S,5R)-1,3,4,5,6-pentahydroxyhexan-2-yl)ureido)butyl) benzenesulfonamide], which EC50 is on record?
**A.** < 100 nM

**Q.** CC(=O)N(CCCCc1cc(Cl)c(COC2(c3cnccc3-c3ccccc3OC3CC3)CC2)cc1Cl)C[C@H](O)[C@@H](O)[C@H](O)[C@H](O)CO [Compound I-68, N-{4-[2,5-dichloro-4-({1-[4-(2-cyclopropoxyphenyl)pyridin-3-yl]cyclopropoxy}methyl)phenyl]butyl}-N-[(2S,3R,4R,5R)-2,3,4,5,6-pentahydroxyhexyl]acetamide] was tested. Which EC50 did it give?
**A.** < 100 nM

**Q.** How did the EC50 turn out when COCCN(C[C@H](O)[C@@H](O)[C@H](O)[C@H](O)CO)C(=O)CCCC(C)c1ccc(C)c(CNC2(c3cnccc3-c3ccccc3OC3CC3)CC2)c1 (stereo partly drawn) [Compound I-357, 5-{3-[({1-[4-(2-cyclopropoxyphenyl)pyridin-3-yl]cyclopropyl}amino)methyl]-4-methylphenyl}-N-(2-methoxyethyl)-N-[(2S,3R,4R,5R)-2,3,4,5,6-pentahydroxyhexyl]hexanamide] was run?
**A.** < 100 nM
